What was measured:
[1] = tested on: V567A/E568A and V567A/E568A/E571A α-ENaC mutants; conditions: cited from earlier work
From the text: Lucas et al. ([31]) identified positions V567, E568, and E571 in the α-subunit as the crucial sites for binding of the lectin-like domain of TNF. They generated alanine replacement mutants in this region of α-ENaC and examined its interaction with the TIP peptide. […] In fact, this applies to all the frameshift mutants examined here.

[2] = tested on: αY447fs; assay: Membrane abundance of αY447fs; format: cell-based, human; conditions: 200 nM, relative to WT control (=1), own control 1.27 ± 0.10, p < 0.001 vs control
Protocol: Cell surface biotinylation was performed as previously described ([26]). In brief, A549 cells or transiently transfected HEK-293 cells were grown in 10 cm dishes in 37°C, 5% CO2 incubator in DMEM medium supplemented with 5% FBS. […] Medium was aspirated, and then cells were washed twice with 10 ml ice-cold phosphate-buffered saline (PBS), covered with 2.5 mg EZ-Link Sulfo-NHS-SS-Biotin (Thermo Scientific, Rockford, USA), dissolved in 10 ml ice-cold PBS, and incubated at 4°C with gentle agitation for 30 min. Fifty milliliters of quenching solution were added to cells; then cells were scraped in solution and transferred to fresh 50 ml tube. Cell suspension was centrifuged at 500 × g for 3 min. Supernatant was discarded, and 5 ml of Tris-buffered saline (TBS) was added to the cell pellet. The cell pellet was resuspended and centrifuged at 500 × g for 3 min. Supernatant was discarded and cell pellet was resuspended in lysis buffer containing protease inhibitor cocktail (10 µM pepstatin A, 10 µM phenylmethylsulfonyl fluoride, and 10 µM leupeptin) and transferred to fresh 1.5 ml centrifuge tube. Cell pellet was then homogenized on ice by ultrasonication using 1 s bursts and incubated on ice for at least 30 min. Intact cells and nuclei were pelleted by centrifugation at 10,000 × g for 2 min under cooling conditions. […] Exposed films were scanned and quantified using ImageJ (NIH, MD, USA). […]

[3] = tested on: αP197fs (co-expressed with βγ-ENaC); assay: Whole-cell patch clamp, αP197fs + WT βγ; format: cell-based, human; conditions: read-out: EC50, solnatide, HEK-293, whole-cell, -100 mV, n = 5, p < 0.001 vs WT
Protocol: Point mutations of α-, β-, γ- and δ-hENaC and PHA1B frameshift mutations of α-hENaC were prepared with the QuikChange Lightning Site-Directed Mutagenesis Kit (Agilent Technologies, CA, USA). Mutagenic primers were designed individually with the Primer Design Program provided on the producer’s website or for the frameshift mutations the same base changes as reported in patients (see Table 2) were performed. Primers were ordered from Sigma-Aldrich, Vienna, Austria.
HEK-293 cells were transfected 1 day after cell seeding using X-tremeGENE HP DNA transfection reagent (Roche Diagnostics, Mannheim, Germany) according to the manufacturer’s protocol. A set of WT or mutant αβγ- or δβγ-hENaC, or α-, β-, γ-, or δ-hENaC alone was used, and the ratio of DNA to transfection reagent was 1:3. The expression was highest 48–72 h after transfection.
Electrophysiological experiments were performed as described in detail by Shabbir et al. ([16]). […] Currents were recorded with the patch clamp method in the whole-cell mode. The chamber contained 1 ml of the bath solution of the following composition (in mM): 145 NaCl, 2.7 KCl, 1.8 CaCl2, 2 MgCl2, 5.5 glucose, and 10 HEPES, adjusted to pH 7.4 with 1 M NaOH solution. Micropipettes were pulled from thin-walled borosilicate glass capillaries (Harvard Apparatus, Holliston, MA, USA) with a DMZ Zeitz Puller to obtain electrode resistances ranging from 2 to 5 MΩ. […]

For C[C@@H]1NC(=O)CNC(=O)[C@H](CCC(=O)O)NC(=O)[C@@H]2CCCN2C(=O)[C@H]([C@@H](C)O)NC(=O)[C@H](CCC(=O)O)NC(=O)[C@H](CCCNC(=N)N)NC(=O)[C@H](CCC(N)=O)NC(=O)CNC(=O)[C@@H](N)CSSC[C@@H](C(=O)O)NC(=O)[C@H](Cc2ccc(O)cc2)NC(=O)[C@H](Cc2c[nH]c3ccccc23)NC(=O)[C@@H]2CCCN2C(=O)[C@H](CCCCN)NC(=O)[C@H](C)NC(=O)[C@H](CCC(=O)O)NC1=O [solnatide, L-cysteine, L-cysteinylglycyl-L-glutaminyl-L-arginyl-L-α-glutamyl-L-threonyl-L-prolyl-L-α-glutamylglycyl-L-alanyl-L-α-glutamyl-L-alanyl-L-lysyl-L-prolyl-L-tryptophyl-L-tyrosyl-, cyclic (1→17)-disulfide], the “Binding capacity” value ([1]; double V567A/E568A and triple V567A/E568A/E571A α-ENaC mutants) is listed as “reduced binding capacity”, the “Increase in Po” value ([1]; double and triple α-ENaC TM2 alanine mutants vs WT ENaC) is listed as “abolition of the increase in Po” and the “Membrane abundance, solnatide 5 min” value ([2]; 5 min) is listed as 1.57 ± 0.13. For the same molecule, the “Membrane abundance, solnatide 10 min” value ([2]; 10 min) was 1.89 ± 0.16 and the EC50 [3] was 84 ± 4.9 nM.
